According to patent US9247759B2, “Identification of human T2R receptors that respond to bitter compounds that elicit the bitter taste in compositions, and the use thereof in assays to identify compounds that inhibit (block) bitter taste in compositions and use thereof” (SENOMYX, INC., priority 2007, dated 2016):
Like-named read-outs stand apart in the source and are kept apart here.

What was measured:
[1] = tested on: hT2R63; experiment: hT2R panel inhibition, transient HEK293 G16g44, agonist Caffeine 1 mM or Andrographolide 100 μM; format: cell-based, human; conditions: compound at 25 μM; receptor activated to EC80 with the corresponding agonist
How it was run: (§1)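 Agonist concentrations were set at EC80 for each receptor. Activity was compared with and without the test compound, and the reduction recorded as inhibition, across 22 individually transfected human T2Rs.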

[2] = target: hT2R10 (Homo sapiens (Human), UniProt Q9NYW0); experiment: hT2R panel inhibition, transient HEK293 G16g44, agonist Strychnine 50 μM; format: cell-based; conditions: HEK293, read-out: screening result against bitter receptor 10, compound at 25 μM; receptor activated to EC80 with the corresponding agonist
Chain of hT2R10 (Q9NYW0 whole entry): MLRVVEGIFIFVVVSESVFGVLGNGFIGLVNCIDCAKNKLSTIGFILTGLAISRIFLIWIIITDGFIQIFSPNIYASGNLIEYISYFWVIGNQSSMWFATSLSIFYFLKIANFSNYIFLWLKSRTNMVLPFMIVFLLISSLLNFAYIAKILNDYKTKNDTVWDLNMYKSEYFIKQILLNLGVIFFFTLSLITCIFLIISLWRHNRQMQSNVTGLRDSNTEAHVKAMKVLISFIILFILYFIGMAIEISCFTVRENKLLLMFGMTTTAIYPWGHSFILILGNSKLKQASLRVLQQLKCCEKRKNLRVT

[3] = target: T1, hT2R14 (Homo sapiens (Human), UniProt Q9NYV8); experiment: hT2R panel inhibition, transient HEK293 G16g44, agonist Aristolochic Acid 2 μM; format: cell-based; conditions: HEK293, compound at 25 μM; receptor activated to EC80 with the corresponding agonist; read-out: screening result against bitter receptor 14
T1 sequence (Q9NYV8 whole entry): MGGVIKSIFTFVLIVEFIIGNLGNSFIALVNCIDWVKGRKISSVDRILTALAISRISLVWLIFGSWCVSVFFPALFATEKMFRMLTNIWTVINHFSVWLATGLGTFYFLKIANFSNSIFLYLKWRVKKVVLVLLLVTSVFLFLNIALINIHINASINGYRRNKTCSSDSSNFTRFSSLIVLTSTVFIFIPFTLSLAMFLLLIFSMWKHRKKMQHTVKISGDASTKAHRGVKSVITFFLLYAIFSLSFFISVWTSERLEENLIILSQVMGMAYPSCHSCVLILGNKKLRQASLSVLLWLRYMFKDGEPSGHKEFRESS
How it was run: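 Each hT2R was transiently transfected into HEK293 cells stably expressing G16g44 and assayed functionally for inhibition of agonist response. Agonists were applied at EC80: andrographolide at 0.5 mM for hT2R8 and aristolochic acid at 2 μM for hT2R14.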

[4] = tested on: hT2R55; experiment: hT2R panel inhibition, transient HEK293 G16g44, agonist Cinchonine 150 μM; format: cell-based, human; conditions: compound at 25 μM; receptor activated to EC80 with the corresponding agonist
How it was run: as §1

[5] = target: hT2R51 (Homo sapiens (Human), UniProt P59533); experiment: hT2R panel inhibition, transient HEK293 G16g44, agonist Prop 2.5 μM; format: cell-based; conditions: HEK293, compound at 25 μM; receptor activated to EC80 with the corresponding agonist; read-out: screening result against bitter receptor 51
Chain of hT2R51 (P59533 whole entry): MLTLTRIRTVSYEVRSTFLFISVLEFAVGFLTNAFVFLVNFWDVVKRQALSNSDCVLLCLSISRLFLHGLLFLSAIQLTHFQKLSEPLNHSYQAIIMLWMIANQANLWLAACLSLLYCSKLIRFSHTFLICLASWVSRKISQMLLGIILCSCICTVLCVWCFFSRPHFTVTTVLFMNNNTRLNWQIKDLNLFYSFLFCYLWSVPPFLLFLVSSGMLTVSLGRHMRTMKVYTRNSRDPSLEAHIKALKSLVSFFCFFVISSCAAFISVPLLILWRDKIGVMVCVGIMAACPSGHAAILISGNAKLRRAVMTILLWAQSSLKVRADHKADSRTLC
How it was run: as §1

[6] = tested on: hT2R44; experiment: hT2R panel inhibition, transient HEK293 G16g44, agonist Denatonium 0.5 μM; format: cell-based, human; conditions: compound at 25 μM; receptor activated to EC80 with the corresponding agonist
How it was run: as §1

[7] = target: hT2R4 (Homo sapiens (Human), UniProt Q9NYW5); experiment: hT2R panel inhibition, transient HEK293 G16g44, agonist Chloroquine pH6.5 5 mM; format: cell-based; conditions: HEK293, compound at 25 μM; receptor activated to EC80 with the corresponding agonist; class symbols; read-out: screening result against bitter receptor 4
Chain of hT2R4 (Q9NYW5 whole entry): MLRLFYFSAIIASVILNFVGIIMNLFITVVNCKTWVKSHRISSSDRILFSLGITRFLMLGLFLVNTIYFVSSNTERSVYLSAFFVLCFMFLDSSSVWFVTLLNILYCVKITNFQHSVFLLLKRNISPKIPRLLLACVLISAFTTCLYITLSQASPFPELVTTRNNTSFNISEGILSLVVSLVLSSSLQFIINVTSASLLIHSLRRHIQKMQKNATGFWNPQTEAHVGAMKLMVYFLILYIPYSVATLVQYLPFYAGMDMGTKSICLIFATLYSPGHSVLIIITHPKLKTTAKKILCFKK
How it was run: as §1

[8] = tested on: hT2R65; experiment: hT2R panel inhibition, transient HEK293 G16g44, agonist Oleuropein 1 mM; format: cell-based, human; conditions: compound at 25 μM; receptor activated to EC80 with the corresponding agonist
How it was run: as §1

[9] = target: hT2R16 (Homo sapiens (Human), UniProt Q9NYV7); experiment: hT2R panel inhibition, transient HEK293 G16g44, agonist Salicin 1 mM; format: cell-based; conditions: HEK293, compound at 25 μM; receptor activated to EC80 with the corresponding agonist; read-out: screening result against bitter receptor 16
Chain of hT2R16 (Q9NYV7 whole entry): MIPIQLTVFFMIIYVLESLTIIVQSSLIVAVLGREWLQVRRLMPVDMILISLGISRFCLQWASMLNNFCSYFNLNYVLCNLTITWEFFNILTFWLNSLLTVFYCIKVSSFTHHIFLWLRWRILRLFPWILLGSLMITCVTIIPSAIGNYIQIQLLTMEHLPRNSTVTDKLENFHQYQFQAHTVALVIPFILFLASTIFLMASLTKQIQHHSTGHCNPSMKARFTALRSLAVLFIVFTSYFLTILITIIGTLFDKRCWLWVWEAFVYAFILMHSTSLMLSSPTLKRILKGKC
How it was run: as §1

[10] = tested on: hT2R54; experiment: hT2R panel inhibition, transient HEK293 G16g44, agonist Ranitidine 5 mM; format: cell-based, human; conditions: compound at 25 μM; receptor activated to EC80 with the corresponding agonist
How it was run: as §1

[11] = target: hT2R64 (Homo sapiens (Human), UniProt P59538); experiment: hT2R panel inhibition, transient HEK293 G16g44, agonist Aristolochic Acid 1 μM; format: cell-based; conditions: HEK293, compound at 25 μM; receptor activated to EC80 with the corresponding agonist; read-out: screening result against bitter receptor 64
Chain of hT2R64 (P59538 whole entry): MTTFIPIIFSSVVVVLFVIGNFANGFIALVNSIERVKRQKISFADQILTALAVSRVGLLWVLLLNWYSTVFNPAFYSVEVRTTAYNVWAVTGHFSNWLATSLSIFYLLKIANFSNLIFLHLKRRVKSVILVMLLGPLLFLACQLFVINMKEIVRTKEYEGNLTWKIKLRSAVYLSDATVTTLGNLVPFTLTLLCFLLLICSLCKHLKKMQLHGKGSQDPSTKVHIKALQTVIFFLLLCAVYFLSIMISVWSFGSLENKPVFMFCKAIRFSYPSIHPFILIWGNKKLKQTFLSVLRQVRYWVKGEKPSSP
How it was run: as §1

[12] = target: hT2R9 (Homo sapiens (Human), UniProt Q9NYW1); experiment: hT2R panel inhibition, transient HEK293 G16g44, agonist Ofloxacin 1 mM; format: cell-based; conditions: HEK293, compound at 25 μM; receptor activated to EC80 with the corresponding agonist; read-out: screening result against bitter receptor 9
Chain of hT2R9 (Q9NYW1 whole entry): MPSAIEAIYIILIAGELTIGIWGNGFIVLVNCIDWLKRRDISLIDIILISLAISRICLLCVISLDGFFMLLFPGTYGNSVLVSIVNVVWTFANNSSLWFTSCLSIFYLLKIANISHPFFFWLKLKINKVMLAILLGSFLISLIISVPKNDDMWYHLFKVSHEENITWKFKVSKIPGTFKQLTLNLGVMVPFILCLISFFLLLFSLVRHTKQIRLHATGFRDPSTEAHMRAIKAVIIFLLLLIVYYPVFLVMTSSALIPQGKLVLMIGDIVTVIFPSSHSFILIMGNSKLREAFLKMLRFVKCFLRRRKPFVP
Procedure: Specifically, in order to evaluate the inhibitory selectivity of the Compound C compound, this compound was tested against 22 human T2Rs which were deorphaned by Senomyx. These receptors and the bitter ligands that activate these human T2Rs are reported in earlier patent applications which are incorporated by reference herein. These 22 human T2Rs are hT2R1, 3, 4, 5, 7, 8, 9, 10, 13, 14, 16, 44, 51, 54, 55, 61, 63, 64, 65, 67, 71 and 75. The amino acid and nucleic acid sequences of all of these T2Rs may be found in these earlier patent applications. These human T2Rs were each individually transiently transfected into HEK293 cells that stably express the promiscuous G protein G16g44 and functional assays were effected using these receptors as disclosed in these same patent applications. […] The ligands were used at EC80 concentration levels. The list of bitter ligands utilized and the tested ligand concentrations are contained in Table 5 of this example.
Relating to the foregoing, FIG. 5 contains experimental results wherein Compound C was tested with different agonist compounds. The inhibition activity is represented by the reduction of receptor activity in the presence of Compound C. […] These 13 hT2Rs are hT2R3, 7, 10, 14, 16, 44, 51, 55, 61, 63, 64, 65, and 71.

[13] = target: hT2R61 (Homo sapiens (Human), UniProt P59537); experiment: hT2R panel inhibition, transient HEK293 G16g44, agonist Aristolochic Acid 25 nM; format: cell-based; conditions: HEK293, compound at 25 μM; receptor activated to EC80 with the corresponding agonist; read-out: screening result against bitter receptor 61
Chain of hT2R61 (P59537 whole entry): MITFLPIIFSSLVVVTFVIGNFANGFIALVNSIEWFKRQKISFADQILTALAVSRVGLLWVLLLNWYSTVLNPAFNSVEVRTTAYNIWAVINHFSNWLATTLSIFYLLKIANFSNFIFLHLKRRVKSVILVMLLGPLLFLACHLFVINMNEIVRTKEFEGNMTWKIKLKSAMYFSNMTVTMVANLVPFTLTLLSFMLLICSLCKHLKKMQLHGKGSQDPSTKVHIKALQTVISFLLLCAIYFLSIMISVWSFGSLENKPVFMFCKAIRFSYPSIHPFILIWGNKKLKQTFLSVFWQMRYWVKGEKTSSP
How it was run: as §1

[14] = target: hT2R3 (Homo sapiens (Human), UniProt Q9NYW6); experiment: hT2R panel inhibition, transient HEK293 G16g44, agonist Chloroquine pH6.5 50 μM; format: cell-based; conditions: HEK293, compound at 25 μM; receptor activated to EC80 with the corresponding agonist; read-out: screening result against bitter receptor 3
Chain of hT2R3 (Q9NYW6 whole entry): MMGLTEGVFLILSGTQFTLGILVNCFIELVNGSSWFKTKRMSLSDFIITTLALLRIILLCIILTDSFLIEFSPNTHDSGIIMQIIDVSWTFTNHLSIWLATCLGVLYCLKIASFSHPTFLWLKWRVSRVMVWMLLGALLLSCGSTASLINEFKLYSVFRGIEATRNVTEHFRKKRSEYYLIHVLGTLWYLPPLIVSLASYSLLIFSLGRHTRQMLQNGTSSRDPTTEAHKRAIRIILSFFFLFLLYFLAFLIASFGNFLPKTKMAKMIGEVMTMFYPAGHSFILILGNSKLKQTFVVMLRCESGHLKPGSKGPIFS
How it was run: as §1

[15] = target: T1, hT2R14; experiment: hT2R14 antagonist high-throughput FLIPR assay, stable cell line with G16g44, agonist aristolochic acid; format: cell-based
How it was run: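 HEK293 cells stably expressing hT2R14 with chimeric G16g44 were stimulated with aristolochic acid (3 μM), giving 70-80% of maximal receptor activity. Test compounds were added together with the agonist, and antagonism was read as fluorescent calcium signal on FLIPR.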

[16] = target: hT2R71 (Homo sapiens (Human), UniProt P59536); experiment: hT2R panel inhibition, transient HEK293 G16g44, agonist Picric Acid 10 μM; format: cell-based; conditions: HEK293, compound at 25 μM; receptor activated to EC80 with the corresponding agonist; read-out: screening result against bitter receptor 71
Chain of hT2R71 (P59536 whole entry): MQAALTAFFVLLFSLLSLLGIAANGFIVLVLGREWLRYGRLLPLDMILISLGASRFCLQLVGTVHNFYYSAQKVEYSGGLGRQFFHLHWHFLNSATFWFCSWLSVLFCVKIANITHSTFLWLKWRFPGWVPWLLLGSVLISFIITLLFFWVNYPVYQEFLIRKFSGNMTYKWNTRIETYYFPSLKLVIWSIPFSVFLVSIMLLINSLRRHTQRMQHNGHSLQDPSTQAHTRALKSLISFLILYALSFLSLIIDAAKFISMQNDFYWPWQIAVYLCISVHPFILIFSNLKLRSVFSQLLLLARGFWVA
How it was run: as §1

[17] = target: hT2R5 (Homo sapiens (Human), UniProt Q9NYW4); experiment: hT2R panel inhibition, transient HEK293 G16g44, agonist Picoline 10 mM; format: cell-based; conditions: HEK293, compound at 25 μM; receptor activated to EC80 with the corresponding agonist; read-out: screening result against bitter receptor 5
Chain of hT2R5 (Q9NYW4 whole entry): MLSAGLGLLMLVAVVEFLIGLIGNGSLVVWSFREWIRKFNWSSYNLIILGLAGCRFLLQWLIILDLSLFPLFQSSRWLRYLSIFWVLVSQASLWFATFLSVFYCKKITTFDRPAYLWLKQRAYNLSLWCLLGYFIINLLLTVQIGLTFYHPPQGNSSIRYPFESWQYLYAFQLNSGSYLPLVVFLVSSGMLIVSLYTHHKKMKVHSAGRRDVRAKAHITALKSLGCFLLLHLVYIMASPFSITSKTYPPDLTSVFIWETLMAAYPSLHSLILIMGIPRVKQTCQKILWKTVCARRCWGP
How it was run: as §1

[18] = target: hT2R75 (Homo sapiens (Human), UniProt P59540); experiment: hT2R panel inhibition, transient HEK293 G16g44, agonist Strychnine 1 μM; format: cell-based; conditions: HEK293, read-out: screening result against bitter receptor 75, compound at 25 μM; receptor activated to EC80 with the corresponding agonist
Chain of hT2R75 (P59540 whole entry): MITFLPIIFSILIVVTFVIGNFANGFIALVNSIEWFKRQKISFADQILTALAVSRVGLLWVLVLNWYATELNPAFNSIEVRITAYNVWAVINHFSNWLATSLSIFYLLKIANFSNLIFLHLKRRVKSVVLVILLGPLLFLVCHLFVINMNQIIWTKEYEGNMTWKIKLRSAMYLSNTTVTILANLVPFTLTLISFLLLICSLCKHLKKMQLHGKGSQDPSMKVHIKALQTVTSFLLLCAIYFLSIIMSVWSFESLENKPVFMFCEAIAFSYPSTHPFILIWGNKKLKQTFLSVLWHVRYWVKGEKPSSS

[19] = target: hT2R7 (Homo sapiens (Human), UniProt Q9NYW3); experiment: hT2R panel inhibition, transient HEK293 G16g44, agonist Chloroquine pH6.5 10 mM; format: cell-based; conditions: HEK293, compound at 25 μM; receptor activated to EC80 with the corresponding agonist; read-out: screening result against bitter receptor 7
Chain of hT2R7 (Q9NYW3 whole entry): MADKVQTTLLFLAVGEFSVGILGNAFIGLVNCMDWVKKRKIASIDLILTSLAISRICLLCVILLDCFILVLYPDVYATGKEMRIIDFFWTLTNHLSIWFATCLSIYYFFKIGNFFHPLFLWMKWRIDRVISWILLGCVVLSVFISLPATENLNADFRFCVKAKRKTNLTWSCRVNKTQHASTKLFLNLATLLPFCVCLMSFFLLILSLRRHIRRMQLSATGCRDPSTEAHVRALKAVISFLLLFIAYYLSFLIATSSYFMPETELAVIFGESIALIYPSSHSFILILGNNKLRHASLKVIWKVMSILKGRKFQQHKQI
How it was run: as §1

[20] = tested on: hT2R67; experiment: hT2R panel inhibition, transient HEK293 G16g44, agonist Andrographolide 5 μM; format: cell-based, human; conditions: compound at 25 μM; receptor activated to EC80 with the corresponding agonist
How it was run: as §1

[21] = read-out: IC50 on hT2R14 bitter receptor

With CCOc1ccc(CN(Cc2ccco2)S(=O)(=O)c2ccc(C(=O)O)cc2)cc1 [Example 5-3, 4-(N-(4-ethoxybenzyl)-N-(furan-2-ylmethyl)sulfamoyl)benzoic acid] the “screening result against bitter receptor 63” value [1] was “+++ (60% to 80% inhibition = +++)”, the inhibition at 25 µM [2] was 40 to 60% and the inhibition at 25 µM [3] was > 80%. For the same compound, the “screening result against bitter receptor 55” value [4] was “++++ (80% or greater inhibition = ++++)”, the inhibition at 25 µM [5] was 20 to 40% and the “screening result against bitter receptor 44” value [6] was “++ (40% to 60% inhibition = ++)”. For the same compound, the inhibition at 25 µM [7] was 60 to 80%, the “screening result against bitter receptor 65” value [8] was “+ (20% to 40% inhibition = +)” and the inhibition at 25 µM [9] was 20 to 40%. For the same compound, the “screening result against bitter receptor 54” value [10] was “++ (40% to 60% inhibition = ++)”, the inhibition at 25 µM [11] was > 80% and the inhibition at 25 µM [12] was 20 to 40%. For the same compound, the inhibition at 25 µM [13] was 40 to 60%, the inhibition at 25 µM [14] was 40 to 60% and the IC50 [15, 21] was 3000 nM. For the same compound, the inhibition at 25 µM [16] was 20 to 40%.
For COc1ccccc1CN(Cc1ccc(C(=O)O)cc1)S(=O)(=O)c1ccccc1 [Example 5-100, 4-((N-(2-methoxybenzyl)phenylsulfonamido)methyl) benzoic acid], the “screening result against bitter receptor 63” value [1] was “+ (20% to 40% inhibition = +)”, the inhibition at 25 µM [2] was 20 to 40% and the inhibition at 25 µM [3] was 40 to 60%. For the same compound, the “screening result against bitter receptor 55” value [4] was “+++ (60% to 80% inhibition = +++)”, the inhibition at 25 µM [17] was 20 to 40% and the “screening result against bitter receptor 44” value [6] was “+++ (60% to 80% inhibition = +++)”. For the same compound, the inhibition at 25 µM [7] was 40 to 60%, the inhibition at 25 µM [18] was 20 to 40% and the “screening result against bitter receptor 65” value [8] was “++ (40% to 60% inhibition = ++)”. The inhibition at 25 µM [19] was 20 to 40%, the inhibition at 25 µM [9] was 20 to 40% and the “screening result against bitter receptor 54” value [10] was “+ (20% to 40% inhibition = +)”. For the same compound, the inhibition at 25 µM [11] was > 80%, the inhibition at 25 µM [12] was 20 to 40% and the inhibition at 25 µM [13] was 60 to 80%. For the same compound, the inhibition at 25 µM [14] was 20 to 40%, the IC50 ([15]; Table C, read-out: hT2R14 IC50) was 1290 nM and the inhibition at 25 µM [16] was 60 to 80%.
Cc1ccc(S(=O)(=O)N(Cc2ccccc2)CC2CCC(C(=O)O)CC2)cc1 (stereo not shown) [Example 5-11, 4-((N-benzyl-4-methylphenylsulfonamido)methyl)cyclohexane-carboxylic acid] was tested, and the “screening result against bitter receptor 63” value [1] was “+++ (60% to 80% inhibition = +++)”, the inhibition at 25 µM [2] was 40 to 60% and the inhibition at 25 µM [3] was > 80%. For the same compound, the “screening result against bitter receptor 55” value [4] was “++++ (80% or greater inhibition = ++++)”, the “screening result against bitter receptor 67” value [20] was “+ (20% to 40% inhibition = +)” and the inhibition at 25 µM [17] was 20 to 40%. For the same compound, the “screening result against bitter receptor 44” value [6] was “+++ (60% to 80% inhibition = +++)”, the inhibition at 25 µM [7] was 60 to 80% and the inhibition at 25 µM [18] was 40 to 60%. The “screening result against bitter receptor 65” value [8] was “+ (20% to 40% inhibition = +)”, the inhibition at 25 µM [19] was 40 to 60% and the inhibition at 25 µM [9] was 40 to 60%. The inhibition at 25 µM [11] was 40 to 60%, the inhibition at 25 µM [12] was 20 to 40% and the inhibition at 25 µM [13] was > 80%. For the same compound, the inhibition at 25 µM [14] was 60 to 80%, the IC50 [15, 21] was 14 nM and the inhibition at 25 µM [16] was 60 to 80%.
